Paper PMC4710522, “A Novel Triazolopyridine-Based Spleen Tyrosine Kinase Inhibitor That Arrests Joint Inflammation” (PLoS ONE, 2016)
Read-outs that look alike come from different tables or passages of the source.

Legend:
Adenosine A1 = target: T1, Adenosine A1 (Homo sapiens, UniProt P30542); assay: receptor, ion channel, transporter binding panel (CEREP)
T1 construct: CEREP (contract assay)
Method: (§1) Syk kinase mode of inhibition studies, including parameters described in Fig 1, were conducted on the LC3000 platform by Caliper Life Sciences (Hopkinton, MA) according to standard protocols developed by the supplier. […] Non-kinase enzyme assays and GPCR, ion channel, and transporter binding assays were run by CEREP (France). Non-GLP manual patch clamp hERG assays were run by ChanTest (Cleveland, Ohio). Vivid® Assay kits (Life Technologies) were used to measure the cytochrome P450 inhibition of the compound against CYP3A, CYP2C9, CYP2C19, CYP2D6, and CYP1A2, as described.

Adenosine A2a = target: T2, Adenosine A2a (Homo sapiens, UniProt P29274); assay: as above
T2 construct: CEREP (contract assay)
T2 sequence (P29274 whole entry): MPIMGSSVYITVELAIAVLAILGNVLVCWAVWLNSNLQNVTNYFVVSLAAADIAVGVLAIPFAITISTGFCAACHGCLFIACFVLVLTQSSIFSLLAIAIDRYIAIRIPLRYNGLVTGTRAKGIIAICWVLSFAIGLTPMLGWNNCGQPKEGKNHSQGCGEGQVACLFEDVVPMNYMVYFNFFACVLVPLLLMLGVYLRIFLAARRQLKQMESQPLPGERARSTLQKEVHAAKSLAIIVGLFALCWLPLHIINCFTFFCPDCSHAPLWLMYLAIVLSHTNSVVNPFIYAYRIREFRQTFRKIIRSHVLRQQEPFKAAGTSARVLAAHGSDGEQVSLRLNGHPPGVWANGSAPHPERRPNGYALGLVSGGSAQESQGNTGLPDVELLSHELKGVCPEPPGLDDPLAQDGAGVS
Method: as §1

Adenosine A3 = target: T3, Adenosine A3 (Homo sapiens, UniProt P0DMS8); assay: as above
T3 construct: CEREP (contract assay)
T3 sequence (P0DMS8 whole entry): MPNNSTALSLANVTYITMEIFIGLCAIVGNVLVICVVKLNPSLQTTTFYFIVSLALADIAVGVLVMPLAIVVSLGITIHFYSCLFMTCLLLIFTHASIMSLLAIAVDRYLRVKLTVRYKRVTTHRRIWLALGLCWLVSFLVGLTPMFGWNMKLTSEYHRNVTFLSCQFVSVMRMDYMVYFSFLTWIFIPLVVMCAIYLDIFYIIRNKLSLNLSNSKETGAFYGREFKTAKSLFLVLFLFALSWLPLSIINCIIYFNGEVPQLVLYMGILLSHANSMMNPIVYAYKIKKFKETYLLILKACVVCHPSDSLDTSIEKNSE
Method: as §1

[1] = target: T4, human ether-à-go-go-related Gene (hERG) channel (Homo sapiens, UniProt Q12809); assay: non-GLP manual patch clamp hERG assay (ChanTest); assay type: cell-based; details: data not shown
T4 construct: ChanTest (contract assay)
T4 sequence (Q12809 whole entry): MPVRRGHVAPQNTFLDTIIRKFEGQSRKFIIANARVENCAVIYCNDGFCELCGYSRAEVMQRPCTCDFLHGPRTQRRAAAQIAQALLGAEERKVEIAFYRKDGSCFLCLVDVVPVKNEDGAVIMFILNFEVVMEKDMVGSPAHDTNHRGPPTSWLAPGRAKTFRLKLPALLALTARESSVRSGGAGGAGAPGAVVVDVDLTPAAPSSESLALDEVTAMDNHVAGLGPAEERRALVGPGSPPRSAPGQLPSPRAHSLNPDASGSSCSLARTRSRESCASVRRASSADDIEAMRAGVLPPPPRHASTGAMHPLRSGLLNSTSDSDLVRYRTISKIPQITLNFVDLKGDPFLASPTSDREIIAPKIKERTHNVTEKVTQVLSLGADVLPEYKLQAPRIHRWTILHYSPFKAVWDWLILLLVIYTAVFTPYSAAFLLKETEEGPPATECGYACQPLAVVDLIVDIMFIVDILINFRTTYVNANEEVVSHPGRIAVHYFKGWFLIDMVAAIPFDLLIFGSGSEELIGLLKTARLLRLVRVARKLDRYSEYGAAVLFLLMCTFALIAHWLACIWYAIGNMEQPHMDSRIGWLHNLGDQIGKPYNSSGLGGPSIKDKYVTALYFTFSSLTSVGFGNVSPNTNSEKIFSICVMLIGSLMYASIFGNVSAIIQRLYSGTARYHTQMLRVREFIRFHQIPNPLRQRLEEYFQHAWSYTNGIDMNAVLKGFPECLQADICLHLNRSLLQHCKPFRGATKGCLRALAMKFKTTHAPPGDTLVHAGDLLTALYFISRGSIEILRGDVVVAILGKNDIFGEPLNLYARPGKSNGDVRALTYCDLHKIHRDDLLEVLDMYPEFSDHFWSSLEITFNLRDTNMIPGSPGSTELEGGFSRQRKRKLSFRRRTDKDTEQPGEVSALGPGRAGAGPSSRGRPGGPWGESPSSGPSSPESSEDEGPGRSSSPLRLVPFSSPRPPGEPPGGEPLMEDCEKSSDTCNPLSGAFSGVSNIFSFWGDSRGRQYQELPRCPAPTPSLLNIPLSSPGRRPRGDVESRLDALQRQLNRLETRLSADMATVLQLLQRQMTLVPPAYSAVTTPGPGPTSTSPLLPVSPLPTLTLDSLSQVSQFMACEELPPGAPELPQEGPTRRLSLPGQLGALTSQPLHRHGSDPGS
Method: as §1

[2] = tested on: proinflammatory analytes in paw tissue; assay: inflammatory cytokines measured in the paw, rat CIA; assay type: in vivo
Method: Following the last administration of CC-509, paw samples were collected and processed for cytokine and chemokine analysis (Aushon Biosciences, Billerica, MA). Briefly paws were snap-frozen and pulverized in liquid nitrogen followed by addition of cell signal lysis buffer in the presence of protease and phosphatase inhibitors (Sigma Chemicals, St. Louis, MO). Samples were homogenized on high speed for 30 seconds, incubated on ice for 20 minutes then sonicated at high intensity for 1 minute. Samples were spun at high speed and supernatants were collected for cytokine analysis.

[3] = plasma compound exposure in rat CIA study; assay type: in vivo; details: for AUC(0-t): female, Lewis, rat, plasma, po, read-out: AUC0-24h in plasma after the last day of dosing
Method: Female Lewis rats (150 – 170g; Charles River Laboratories) were house standard shoebox cages, fed Harlan-Tekald diet and water ad libitum and maintained on a 12h light/dark cycle. For induction of arthritis rats were anesthetized with isofluorane and their entire dorsal area shaved. Rats were injected (intradermal) with 100 μl of equal volumes of collagen (Chrondrex, Redmond, WA) and IFA (Sigma Chemicals, St. Louis, MO) emulsion in 10 sites across the dorsal region. At disease onset 11 days following immunization animals were randomized into groups based on their ankle measurements and test article administration was initiated. Rats were dosed orally with vehicle (20% Captisol®), Indomethacin (Sigma Chemicals, St. Louis, MO, 2mg/kg) or CC-509 (15, 25mg/kg QD or 15mg/kg BID) in a dose volume of 5ml/kg. […] On the last day of the study animals were split into 2 cohorts and bleed twice via tail bleed under isofluorane anesthesia and a third terminal bleed following CO2 asphyxiation to obtain a time course of plasma compound exposure at 30minutes, 1, 2, 4, 8 and 24h after the last dose of CC-509.

DNAPK_h = target: T5, DNAPK_h (Homo sapiens, UniProt P78527); assay: SelectScreen kinase assay; assay type: biochemical; details: 3 µM, KM ATP
T5 construct: purchased Life Technologies (Invitrogen) SelectScreen, Z'-LYTE / Adapta
Method: as §1
Kinase activity was measured using either the Z’-Lyte® or the Adapta® protocols as part of the SelectScreen™ profiling service offered at Life Technologies (Grand Island, NY). […] Values expressed as percent control (% control) relative to DMSO-only wells (uninhibited, 100%).

T1 sequence (P30542 whole entry): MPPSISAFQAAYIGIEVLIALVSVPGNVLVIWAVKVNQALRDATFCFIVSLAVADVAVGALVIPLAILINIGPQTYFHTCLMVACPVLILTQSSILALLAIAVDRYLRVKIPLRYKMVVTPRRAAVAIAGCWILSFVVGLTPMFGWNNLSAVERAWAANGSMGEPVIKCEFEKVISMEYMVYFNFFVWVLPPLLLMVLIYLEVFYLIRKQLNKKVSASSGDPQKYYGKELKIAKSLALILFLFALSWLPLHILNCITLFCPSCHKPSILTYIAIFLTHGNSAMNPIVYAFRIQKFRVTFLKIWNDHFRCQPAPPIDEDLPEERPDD

With `c1cc(CC2CCOCC2)n2nc(Nc3ccc4c(NC5CCOCC5)n[nH]c4c3)nc2c1` [CC-509, [3-(2H-3,4,5,6-tetrahydropyran-4-ylamino)(1H-indazol-6-yl)][5-(2H-3,4,5,6-tetrahydropyran-4-ylmethyl)(2H-1,2,4-triazolo[1,5-a]pyridin-2-yl)]amine] the inhibition at 10 µM (Adenosine A1) was 89%, the inhibition at 10 µM (Adenosine A2a) was 96% and the inhibition at 10 µM (Adenosine A3) was 84%. The “inhibition of hERG channel activity” value [1] was “did not inhibit”, the “other proinflammatory analytes in the paw (IL-1β, IL-6, CRP)” value ([2]; day 18) was “No other significant effects” and the “MCP-1 in the paw” value ([2]; day 18, 15 mg/kg q.d. and b.i.d. groups, p<0.01) was “significantly reduced”. For the same molecule, the “RANTES in the paw” value ([2]; day 18, all CC-509 dose levels, p<0.001) was “significantly reduced”, the “KC in the paw” value ([2]; day 18, only in the 15 mg/kg b.i.d. group, p<0.05) was “reduced” and the “MIP-1α in the paw” value ([2]; day 18, CC-509 all dose levels p<0.01, indomethacin p<0.05) was “significantly reduced”. The AUC(0-t) ([3]; 15 mg/kg, 15 mg/kg b.i.d.) was 60 µM·h, the AUC(0-t) ([3]; 15 mg/kg, 15 mg/kg q.d.) was 22 µM·h and the AUC(0-t) ([3]; 25 mg/kg, 25 mg/kg q.d.) was 45 µM·h. It also gave a minimal efficacious exposure ([3]; rat CIA) of 45 µM·h.
With `COc1cc(Nc2ncc(F)c(Nc3ccc4c(n3)NC(=O)C(C)(C)O4)n2)cc(OC)c1OC` [R406, reference compound] the “% control” value (DNAPK_h) was 87%.
